Assay results as given in patent publication US20250171433A1, “A1H-BENZO[C][1,2]THIADIAZINE-2,2-DIOXIDES BEARING HETEROCYCLIC LINKERS AS SELECTIVE HISTONE DEACETYLASE 6 INHIBITORS” (Georgetown University, priority 2022, published 2025).
Read-outs that look alike come from different tables or passages of the source.

Key:
hHDAC6 = target: T1, hHDAC6 (Homo sapiens, UniProt Q9UBN7); assay: HDAC enzyme activity inhibition assay, HDAC6; assay type: biochemical; conditions: duplicate, performed by DRC; read-out: potency at hHDAC6
T1 construct: host or cells: baculovirus / Sf9 cells
T1 sequence (Q9UBN7 1-1215): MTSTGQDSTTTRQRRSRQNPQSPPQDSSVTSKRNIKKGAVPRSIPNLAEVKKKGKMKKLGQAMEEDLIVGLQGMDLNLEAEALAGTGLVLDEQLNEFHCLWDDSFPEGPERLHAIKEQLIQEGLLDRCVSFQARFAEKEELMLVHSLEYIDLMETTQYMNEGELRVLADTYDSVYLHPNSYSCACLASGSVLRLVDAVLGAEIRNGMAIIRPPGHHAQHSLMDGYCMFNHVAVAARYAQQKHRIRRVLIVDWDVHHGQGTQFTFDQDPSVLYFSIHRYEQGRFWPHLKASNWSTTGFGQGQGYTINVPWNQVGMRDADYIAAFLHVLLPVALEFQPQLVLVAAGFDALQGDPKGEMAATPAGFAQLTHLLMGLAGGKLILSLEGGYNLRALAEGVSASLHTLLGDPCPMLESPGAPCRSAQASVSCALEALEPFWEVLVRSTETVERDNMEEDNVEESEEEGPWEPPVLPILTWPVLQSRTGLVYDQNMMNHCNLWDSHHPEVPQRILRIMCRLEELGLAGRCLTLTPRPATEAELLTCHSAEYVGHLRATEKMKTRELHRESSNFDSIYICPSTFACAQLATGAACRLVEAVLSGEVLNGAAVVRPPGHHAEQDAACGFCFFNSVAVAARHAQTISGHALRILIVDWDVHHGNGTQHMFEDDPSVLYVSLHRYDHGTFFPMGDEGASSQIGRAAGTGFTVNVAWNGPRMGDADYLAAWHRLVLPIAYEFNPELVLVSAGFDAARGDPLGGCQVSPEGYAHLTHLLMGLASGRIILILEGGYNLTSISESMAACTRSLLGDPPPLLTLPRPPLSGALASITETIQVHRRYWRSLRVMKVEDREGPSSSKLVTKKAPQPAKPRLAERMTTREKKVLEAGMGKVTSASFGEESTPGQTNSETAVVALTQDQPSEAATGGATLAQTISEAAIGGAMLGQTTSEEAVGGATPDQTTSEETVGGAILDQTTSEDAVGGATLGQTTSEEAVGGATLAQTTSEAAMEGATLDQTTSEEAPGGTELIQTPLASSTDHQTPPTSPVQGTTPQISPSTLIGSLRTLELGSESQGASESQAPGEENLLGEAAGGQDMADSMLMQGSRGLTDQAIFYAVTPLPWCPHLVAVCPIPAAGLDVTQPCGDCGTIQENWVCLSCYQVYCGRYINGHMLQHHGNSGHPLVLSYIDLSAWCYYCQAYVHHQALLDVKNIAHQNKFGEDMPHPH
Experimental: (§1) The effectiveness, or potency, of a present HDAC6I with respect to inhibiting the activity of an HDAC is measured by an IC50 value. The quantitative IC50 value indicates the concentration of a particular compound that is needed to inhibit the activity of an enzyme by 50% in vitro. Stated alternatively, the IC50 value is the half maximal (50%) inhibitory concentration of a compound tested using a specific enzyme, e.g., HDAC, of interest.
(§2) The HDAC1, 2, 4, 5, 6, 7, 8, 9, 10, and 11 assays used isolated recombinant human protein; HDAC3/NcoR2 complex was used for the HDAC3 assay. Substrate for HDAC1, 2, 3, 6, 10, and 11 assays is a fluorogenic peptide from p53 residues 379-382 (RHKKAc); substrate for HDAC8 is fluorogenic diacyl peptide based on residues 379-382 of p53 (RHKAcKAc). Acetyl-Lys(trifluoroacetyl)-AMC substrate was used for HDAC4, 5, 7, and 9 assays. Compounds were dissolved in DMSO and tested in 10-dose IC50 mode with 3-fold serial dilution starting at 30 μM. […]
(§3) All IC50 values are automatically calculated using the GraphPad Prism version 5 and Equation of Sigmoidal dose-response (variable slope): […]
(§4) HDAC Activity Assays: HDAC assay is performed using fluorescently-labeled acetylated substrate, which comprises an acetylated lysine side chain. […] HDACs 1 and 6 were expressed as full length fusion proteins. […]

HDAC1 = target: T2, HDAC1 (Homo sapiens, UniProt Q13547); assay: HDAC enzyme activity inhibition assay, HDAC1; assay type: biochemical; conditions: DRC
T2 construct: host or cells: baculovirus / Sf9 cells
Experimental: as §1, §2, §3, §4

other HDAC subtypes = assay: Inhibition of other HDAC subtypes at a single concentration; assay type: biochemical, human
Experimental: The HDAC1, 2, 4, 5, 6, 7, 8, 9, 10, and 11 assays used isolated recombinant human protein; HDAC3/NcoR2 complex was used for the HDAC3 assay. Substrate for HDAC1, 2, 3, 6, 10, and 11 assays is a fluorogenic peptide from p53 residues 379-382 (RHKKAc); substrate for HDAC8 is fluorogenic diacyl peptide based on residues 379-382 of p53 (RHKAcKAc). Acetyl-Lys(trifluoroacetyl)-AMC substrate was used for HDAC4, 5, 7, and 9 assays. Compounds were dissolved in DMSO and tested in 10-dose IC50 mode with 3-fold serial dilution starting at 30 μM. Control compound trichostatin A (TSA) was tested in a 10-dose IC50 mode with 3-fold serial dilution starting at 5 μM. IC50 values were extracted by curve-fitting the dose/response slopes. Assays were performed in duplicate, and IC50 values are an average of data from both experiments.

Kinetic solubility = assay type: physicochemical
Permeability and efflux = assay type: in vitro ADME
[1] = Clearance in human microsomes; assay type: in vitro ADME
[2] = Clearance in mouse microsomes; assay type: in vitro ADME
[3] = Free fraction in mouse plasma; assay type: in vitro ADME
[4] = Free fraction in human plasma; assay type: in vitro ADME
[5] = Chemical stability at pH 7.4 and 2; assay type: physicochemical
Mice iv PK = conditions: mouse, in vivo
[6] = Oral PK study with brain and sciatic nerve exposure; assay type: in vivo, mice
[7] = Reported functional activity
[8] = mouse, plasma, oral PK study, gavage

T2 sequence (Q13547 whole entry): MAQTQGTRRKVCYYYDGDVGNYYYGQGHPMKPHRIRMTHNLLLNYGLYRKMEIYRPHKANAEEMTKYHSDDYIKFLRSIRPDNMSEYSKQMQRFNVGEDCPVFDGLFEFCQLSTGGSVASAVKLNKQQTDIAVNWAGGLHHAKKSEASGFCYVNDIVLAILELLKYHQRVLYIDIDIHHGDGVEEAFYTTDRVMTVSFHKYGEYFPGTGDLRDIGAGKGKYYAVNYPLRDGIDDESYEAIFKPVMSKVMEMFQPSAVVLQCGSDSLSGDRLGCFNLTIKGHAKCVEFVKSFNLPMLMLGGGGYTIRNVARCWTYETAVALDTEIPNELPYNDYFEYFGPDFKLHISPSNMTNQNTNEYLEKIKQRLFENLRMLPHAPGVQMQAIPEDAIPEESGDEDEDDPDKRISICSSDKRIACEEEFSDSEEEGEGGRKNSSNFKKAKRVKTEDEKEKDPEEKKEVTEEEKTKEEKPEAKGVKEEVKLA

O=S1(=O)CCc2ccccc2N1Cc1ccc(-c2nnc(C(F)F)o2)cn1 [Compound 1, 1-[[5-[5-(Difluoromethyl)-1,3,4-axadiazol-2-yl)pyridin-2-yl]methyl]-3,4-dihydro-1H-benzo[c][1,2]thiazine-2,2-dioxide]
IC50 (hHDAC6): 29 nM
selectivity against HDAC1 (HDAC1): full selectivity
% inh. at 10 μM versus other HDAC subtypes (other HDAC subtypes): < 20%
kinetic solubility (Kinetic solubility): high
efflux (Permeability and efflux): low
permeability (Permeability and efflux): high
clearance in human microsomes [1]: low
clearance in mouse microsomes [2]: higher
microsomal CLint ([2]; mouse, compared with set criteria in Schedule B, species not given): > 50 µL/min/mg
free fraction in mouse plasma [3]: high
free fraction in human plasma [4]: high
chemical stability at pH 2 ([5]; pH 2): chemically stable
chemical stability at pH 7.4 ([5]; pH 7.4): chemically stable
clearance (Mice iv PK): 44.9 mL/min/kg
Kp at 1 h ([6]; mouse, brain and plasma, oral, @1 h, read-out: Brain/Plasma ratio): 0.8
Kp at 4 h ([6]; mouse, brain and plasma, oral, @4 h, read-out: Brain/Plasma ratio): 1.2
concentrations detected in the brain and the sciatic nerve ([6]; mouse, in vivo): moderate
bioavailability ([6]; mouse, plasma, oral PK study): 14.7%
half-life ([6]; mouse, plasma, oral PK study): 132 min
Cmax [6, 8]: 456 ng/mL
Tmax [6, 8]: 15 min
MRT ([6]; mouse, plasma, oral PK study, read-out: mean residence time): 3.14 h
Kp at 1 h ([6]; mouse, sciatic nerve and plasma, oral, at 1 h, read-out: Sciatic nerve/plasma ratio): 0.4
clearance ([6]; oral PK study): medium
volume of distribution ([6]; oral PK study): medium
reported functional activity [7]: 0.76 µM
